pEC50: −log10 of the molar value.
Experiments:
[1] = tested on: MMEJ (resection independent reporter); assay: Extrachromosomal MMEJ reporter assay, resection independent, HEK-293; format: cell-based
Protocol: MMEJ resection-independent and MMEJ resection-dependent reporter assays performed as previously described. In brief, HEK-293 cells were resuspended in supplemented SF nucleofection solution (Lonza) containing nanoluciferase DNA substrate and Firefly luciferase plasmid (Promega) at a ratio of 100 μl SF: 1500 ng nanoluciferase substrate: 1000 ng Firefly plasmid: ∼1.5 × 10^6 cells. Cells were electroporated and recovered into fresh media before seeding into a 96-well plate pre-dosed with compounds and DMSO control.
After 24 h, Firefly and NanoLuc levels were detected using the Nano-Glo® Dual-Luciferase® Reporter Assay system (Promega) as per the manufacturer’s instructions. NanoLuc luminescence (reporter) was normalized to Firefly luminescence (control) to determine substrate repair. Percentage repair was calculated relative to the DMSO control.

[2] = tested on: DLD-1, DLD-1 BRCA2KO, SUM149PT, MDA-MB-436 cells; assay: Cell cycle analysis by immunofluorescence (PCNA/DAPI); format: cell-based
Protocol: Cells were seeded at a density of 10 000 cells per well in 100 μl of media in collagen-coated 96-well plates (Revvity, #6055700). Twenty-four hours after seeding, cells were treated with the indicated doses of MSC2798778, MSC2798781, or DMSO (Apollo Scientific, BID1200) using a D300e digital dispenser (Tecan) for 24 h. Cells were washed with PBS and fixed in 4% PFA (ChemCruz, sc-281692) for 10 min at room temperature.
For immunofluorescence staining, cells were washed with PBS then blocked and permeabilized with PBS containing 0.5% BSA and 0.5% Triton X-100 (blocking buffer) for 45 min at room temperature. Cells were then stained with the indicated markers by incubation with primary antibodies (Supplementary Table S5) diluted in the blocking buffer, overnight at 4°C. […]
• Foci were quantified by setting up a contrast threshold higher than the background signal. • pKAP1 positive cells were selected using a mean intensity threshold. • Cell cycle analysis was performed by defining gates on a bivariate plot of DAPI total nuclear intensity and PCNA mean nuclear intensity. PCNA positive cells were scored as cells in S-phase. G1 and G2/M cells were scored as PCNA negative cells with differential DNA content. • PARylation and replication levels were quantified by measuring the mean nuclear fluorescence intensity, in PCNA positive cells, of poly/mono-ADP ribosylation and EdU, respectively.

FEN1 (1-380) FL-6His = molecular target: T1, FEN1 (1-380) FL-6His (Homo sapiens, UniProt P39748); assay: Differential scanning fluorimetry; format: binding; conditions: compound 100 µM
T1 construct: FEN1(1-380)-6His was immobilized on a CM5 chip; made in house; host or cells: Escherichia coli
T1 sequence (P39748 whole entry): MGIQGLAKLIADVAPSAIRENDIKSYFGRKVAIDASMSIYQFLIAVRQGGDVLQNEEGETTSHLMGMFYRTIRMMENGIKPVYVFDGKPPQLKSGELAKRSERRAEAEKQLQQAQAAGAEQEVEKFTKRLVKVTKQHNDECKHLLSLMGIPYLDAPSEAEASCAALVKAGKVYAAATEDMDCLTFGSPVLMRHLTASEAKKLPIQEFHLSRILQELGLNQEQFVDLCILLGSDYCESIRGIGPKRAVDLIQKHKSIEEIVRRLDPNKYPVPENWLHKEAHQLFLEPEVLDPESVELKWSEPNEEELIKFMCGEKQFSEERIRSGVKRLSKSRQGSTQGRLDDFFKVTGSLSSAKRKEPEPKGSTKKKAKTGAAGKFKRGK
Protocol: A volume of 100 nl of each compound at stock concentration of 10 mM was dispensed into a 384-well skirted PCR Plate (MicroAmp™ Optical plate) using a D300e digital dispenser (Tecan). Wells were normalized such that each contained 1% (v/v) DMSO and final compound concentration of 100 µM.
FEN1 (1-380) FL-6His protein (1.25×) and protein 5× thermal shift dye (Thermo Fisher Scientific) were prepared separately in freshly prepared differential scanning fluorimetry (DSF) assay buffer (20 mM Tris–HCl pH 7.5, 100 mM potassium chloride, 5 mM magnesium chloride, and 1 mM dithiothreitol). Eight microliters of 1.25× Fen1 (10 µM) was added to the appropriate well, plate sealed with aluminium sealing film (Axygen), and centrifuged at 500 × g for 1 min before incubating for 30 min at 4°C. After the incubation period, the plate was centrifuged again at 500 × g for 1 min and 2 µl of 5× protein thermal shift dye was added. […] Fluorescence was measured using a Quantstudio pro7.0 qPCR machine (Thermo Fisher Scientific) using internal optical ×1 filter (470 ± 15 nm) for excitation and m3 filter (586 ± 10 nm) for emission.
Each experiment was run in quadruplicates and melting temperatures (Tm) calculated as the inflection point of the derivative function using the protein thermal shift software (Thermo Fisher Scientific). DeltaTm was calculated using the Tm of protein with 1% DMSO as reference.

[3] = tested on: DLD-1, DLD-1 BRCA2KO, SUM149PT, MDA-MB-436 cells; assay: Flow cytometric analysis of apoptosis (annexin V/PI); format: cell-based; conditions: 1 μM, 72 h
Protocol: (§1) Apoptosis was measured using annexin V and propidium iodide (PI) staining using an Annexin V-fluorescein isothiocyanate (FITC) apoptosis detection kit (Thermo Fisher Scientific, V13242) according to manufacturer’s instructions.
(§2) Briefly, cells were cultured in six-well plates and treated with FEN1 inhibitor at indicated concentrations for 72 h. The supernatant and adherent cells were collected and washed twice with ice-cold PBS, then re-suspended in 100 µl of 1× binding buffer. Annexin V-FITC conjugate (5 µl) and PI (1 µl) were added, and the cells were incubated at room temperature for 15 min in the dark. After addition of 300 µl of 1× binding buffer, the cells were analyzed using a flow cytometer (CytoFLEX, Beckman).

[4] = tested on: EWS cells (MHH-ES-1, RD-ES); assay: as above; format: cell-based; conditions: 0.1 μM, 72 h
Protocol: as §1, §2

U-2 OS cells = assay: as above; format: cell-based; conditions: 0.1 μM, 72 h
Protocol: as §1, §2

Structure (SMILES)	Inhibited MMEJ ([1]; both reporters, HEK-293)	Cell cycle effect ([2]; 3 µM, HRD panel and EWS panel (U-2 OS, RD-ES, MHH-ES-1))	Thermal stabilization of FEN1 (DSF) (FEN1 (1-380) FL-6His)	pEC50 ([1]; Homo sapiens, HEK293, resection independent reporter, HEK-293, 24 h, read-out: MMEJ inhibition EC50)	MMEJ potency relative to ART558 ([1]; lower potency than ART558, both reporters)	Cell cycle effect ([2]; 24 h treatment, all four cell lines)	Induction of cell death [3]	Induction of cell death [4]	Induction of apoptotic cell death (U-2 OS cells)
C[C@@H](Oc1nn2c(c(O)c1=O)C(=O)N1CCOC[C@@H]1C2)c1ccc2ccc(Cl)cc2c1 [MSC781]	not	not perturbed							
C[C@H](Oc1nn2c(c(O)c1=O)C(=O)N1CCOC[C@@H]1C2)c1ccc2ccc(Cl)cc2c1 [MSC778]			thermally stabilized FEN1	6.00	10–20 fold	titratable S-phase accumulation	induced cell death by apoptosis	induced apoptotic cell death	not

— publication PMC12684391, “Mechanistic insights into the monotherapy and combination potential of FEN1 inhibition in cancer therapy” (Nucleic Acids Research, 2025)
